Consider three molecules from patent publication US20030134859A1 (SANKYO COMPANY, LIMITED, priority 2000, published 2003).

One test relates to Rat white adipocytes. Kind of test: Stimulation of differentiation of the adipocytes (Oil Red O). The test is classed as cell-based. The following applies: 100 nM test compound, 5 days, Oil Red O ABS550, control = 100%, blank = 0%, Table 7; for activity at 0.1 µM: Rattus norvegicus, Adipocyte, 120 h, read-out: Rate of Differentiation (%). The procedure, abridged: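 Rat white adipocytes, 5,000 cells/well, cultured 5 days in differentiation-inducing medium with test compound at final 100 nM (0.1% DMSO). Cells fixed, stained with Oil Red O, dye extracted in DMSO and read at 550 nm; differentiation rate expressed relative to vehicle control (100%) and cell-free blank (0%).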

A further test relates to TNF-α production. Description: Inhibitory activity against cytokine (TNF-α) production in LPS-stimulated RAW264.7 cells. The format is cell-based, mouse. Conditions: 1 μM test compound, LPS 10 ng/mL; for inhibition at 1 µM: Mus musculus, RAW264.7, 15 h. The procedure, abridged:
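Mouse RAW264.7 macrophages (5,000 cells/well) stimulated with 10 ng/mL LPS (final) and treated with test compound at 1 μM final for 15 h at 37 °C. Supernatant mouse TNF-α measured by ELISA; % inhibition = 100−(A−B)/(C−B)×100, using unstimulated and LPS-only controls.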

Turning to `O=C(Nc1nc2ccc(Cc3ccc(F)cc3)cc2s1)c1cc([N+](=O)[O-])ccc1Cl` [Example 90, N-[6-(4-Fluorobenzyl)benzothiazol-2-yl]-(2-chloro-5-nitrophenyl)carboxamide], the activity at 0.1 µM with Rat white adipocytes is 131%. In the test with TNF-α production, 1 µM produced 19.4% inhibition.

For `Cc1csc(NC(=O)c2cc([N+](=O)[O-])ccc2Cl)n1` [Example 3, N-(4-Methylthiazol-2-yl)-(2-chloro-5-nitrophenyl)carboxamide], the activity at 0.1 µM with Rat white adipocytes came out at 126%. In the test with TNF-α production, 1 µM produced 17% inhibition.

Turning to `O=C(Nc1ccc(-c2ccc(O)cc2)cc1)c1cc([N+](=O)[O-])ccc1Cl` [Example 135, N-[4-(4-Hydroxyphenyl)phenyl]-2-(chloro-5-nitrophenyl)carboxamide], the “Rate of Differentiation (%)” value in the test with Rat white adipocytes is listed as 128.0%. Further, the “Inhibitory Activity (%) against TNF-α production” value in the test with TNF-α production (15 hr) is on record as 16.6%.

For orientation: inhibition means the percentage by which the read-out fell short of the control.
